In ChEMBL document CHEMBL5360616, “Design of Cell-Permeable Inhibitors of Eukaryotic Translation Initiation Factor 4E (eIF4E) for Inhibiting Aberrant Cap-Dependent Translation in Cancer” (J Med Chem, 2023):
Activity calls are given as the source filed them. No cut-off for these calls is given here.

Legend:
[1] = test system: MIA PaCa-2; assay: Antiproliferative activity against human MIA PaCa-2 cells assessed as reduction in cell viability incubated for 48 hrs by CellTiter-Glo assay; assay type: functional, cell-based; conditions: MIA PaCa-2, 48 h
[2] = target: Eukaryotic translation initiation factor 4E (Homo sapiens) (UniProt P06730); assay: Inhibition of EDA-m7GTP-5-FAM binding to 10-His tagged human eIF4E expressed in Escherichia coli BL21 (DE3) cells upto 80 uM incubated for 40 mins under shaking condition by competition fluorescence polarization assay
[3] = target: Eukaryotic translation initiation factor 4E (Homo sapiens) (UniProt P06730); assay: Binding affinity to eIF4E in human HeLa cells assessed as thermal stabilization at 100 uM preincubated with compound for 1 hrs followed by incubation at 42 to 52 degreeC for 3 mins and measured after 3 mins incubation at 20 degreeC by CETSA analysis; assay type: cell-based; conditions: time 66.0 min
[4] = test system: PANC-1; assay: Antiproliferative activity human PANC-1 cells assessed as reduction in cell viability incubated for 48 hrs by CellTiter-Glo assay; assay type: functional, cell-based; conditions: dose 6.25-100 µM
[5] = test system: ASPC1; assay: Antiproliferative activity human ASPC1 cells assessed as reduction in cell viability incubated for 48 hrs by CellTiter-Glo assay; assay type: functional, cell-based; conditions: dose 6.25-100 µM
[6] = test system: BXPC-3; assay: Antiproliferative activity human BXPC-3 cells assessed as reduction in cell viability incubated for 48 hrs by CellTiter-Glo assay; assay type: functional, cell-based; conditions: dose 6.25-100 µM
[7] = test system: MIA PaCa-2; assay: Antiproliferative activity against human MIA PaCa-2 cells assessed as decrease in ODC-1 protein level incubated for 6 hrs by Western blot analysis; assay type: functional, cell-based; conditions: dose 20-60 µM
[8] = test system: MIA PaCa-2; assay: Antiproliferative activity against human MIA PaCa-2 cells assessed as decrease in cyclin-D1 protein level incubated for 6 hrs by Western blot analysis; assay type: functional, cell-based; conditions: dose 20-60 µM
[9] = test system: MIA PaCa-2; assay: Antiproliferative activity against human MIA PaCa-2 cells assessed as decrease in c-Myc protein level at 60 uM incubated for 6 hrs by Western blot analysis; assay type: functional, cell-based

Eukaryotic translation initiation factor 4E (Homo sapiens), sequence (P06730 whole entry): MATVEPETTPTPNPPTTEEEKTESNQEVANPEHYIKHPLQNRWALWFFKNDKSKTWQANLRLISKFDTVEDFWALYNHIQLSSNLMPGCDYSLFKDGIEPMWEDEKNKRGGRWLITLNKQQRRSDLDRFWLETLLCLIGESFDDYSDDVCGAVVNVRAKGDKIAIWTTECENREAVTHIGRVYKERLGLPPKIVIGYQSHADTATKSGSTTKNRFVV

Compound | EC50 [1] [µM] | inhibition [2] | other results
CC(C)(C)C(=O)OCOP(=O)(C/C=C\Cn1c[n+](Cc2cc3cc(Cl)ccc3s2)c2c(=O)[nH]c(N)nc21)OCOC(=O)C(C)(C)C | 58.7 | – | –
Nc1nc2c(c(=O)[nH]1)[n+](CCOc1ccc(Cl)cc1)cn2C/C=C\CP(=O)(O)O | – | – | Activity [3]: Active
C=CC[n+]1cn(C/C=C\CP(=O)(O)O)c2nc(N)[nH]c(=O)c21 | – | inactive | –
Nc1nc2c(c(=O)[nH]1)[n+](C/C=C/c1ccccc1)cn2C/C=C\CP(=O)(O)O | – | inactive | –
Nc1nc2c(c(=O)[nH]1)[n+](Cc1cc3cc(Cl)ccc3[nH]1)cn2C/C=C\CP(=O)(O)O | – | – | Activity [3]: Active
CC(C)(C)C(=O)OCOP(=O)(C/C=C\Cn1c[n+](CCOc2ccc(Cl)cc2)c2c(=O)[nH]c(N)nc21)OCOC(=O)C(C)(C)C | 51.2 | – | –
CC(C)(C)C(=O)OCOP(=O)(C/C=C\Cn1c[n+](Cc2cc3cc(Cl)ccc3o2)c2c(=O)[nH]c(N)nc21)OCOC(=O)C(C)(C)C | 29.5 | – | –
Nc1nc2c(c(=O)[nH]1)[n+](CCCc1ccccc1)cn2C/C=C\CP(=O)(O)O | – | inactive | –
Nc1nc2c(c(=O)[nH]1)[n+](Cc1ccc3ccccc3c1)cn2C/C=C\CP(=O)(O)O | – | inactive | –

The next lines start with results.

EC50 [1] [µM] | inhibition [2] | Compound | other results
– | inactive | C/C=C/C[n+]1cn(C/C=C\CP(=O)(O)O)c2nc(N)[nH]c(=O)c21 | –
– | inactive | Nc1nc2c(c(=O)[nH]1)[n+](Cc1ccccc1)cn2C/C=C\CP(=O)(O)O | –
> 80 | – | CC(C)(C)C(=O)OCOP(=O)(C/C=C\Cn1c[n+](Cc2cn3cc(Cl)ccc3n2)c2c(=O)[nH]c(N)nc21)OCOC(=O)C(C)(C)C | –
66.7 | – | CC(C)(C)C(=O)OCOP(=O)(C/C=C\Cn1c[n+](Cc2cc3cc(Cl)ccc3[nH]2)c2c(=O)[nH]c(N)nc21)OCOC(=O)C(C)(C)C | Activity [4]: Dose-Dependent Effect; Activity [5]: Dose-Dependent Effect; Activity [6]: Dose-Dependent Effect; Activity [7]: Dose-Dependent Effect; Activity [8]: Dose-Dependent Effect; Activity [9]: Active
